Measurements as given in US20130029937A1, “TREATMENT OF SURFACTANTS” (SOLAEROMED INC., priority 2007, published 2013).

Columns and labels:
[1] = captive bubble surfactometer (CBS), oxidized BLES with added cholesterol; format: physicochemical, cattle; conditions: MβCD (20 mmol) in the aqueous phase
Description: In a model study, 0, 5 and 10 weight percent cholesterol was added to a ROS-exposed cattle lipid surfactant extract as an example of how even a normal (physiological) amount of cholesterol renders surfactant exposed to ROS and its derivatives dysfunctional; the function of the surfactant model was determined in a captive bubble surfactometer (CBS).
Surface activity of surfactant was determined with a computer-controlled captive bubble surfactometer (CBS) as described in detail by Gunasekara et al. (Gunasekara L, Schoel W M, Schürch S & Amrein M W (2008) A comparative study of mechanisms of surfactant inhibition. BBA—Biomembranes 1778: 433-444), with two important changes: 1) A transparent capillary was used to deposit a ˜1.0 μL bolus of 27 mg/mL surfactant near the air-buffer interface. The quantity and concentration of surfactant were chosen to minimize effects caused by insufficient surfactant or bulk phase adsorption. This amount of native BLES reliably reproduces minimum and maximum surface tensions as measured in situ at functional reserve capacity and total lung capacity (<1 mN/m and ˜30 mN/m, respectively) (Bachofen H & Schtirch S (2001) Alveolar surface forces and lung architecture. Comparative Biochemistry and Physiology—Part A: Molecular & Integrative Physiology 129: 183-193). […]

[2] = murine model of acute lung injury (acid injury), MβCD aerosol, surfactant function; format: in vivo, mice
Source text: In this study, a murine model of acute lung injury (ALI), the earliest phase of ARDS, was created by acid injury of the lung according to published procedures (Allen, G. B. et al. Neither fibrin nor plasminogen activator inhibitor-1 deficiency protects lung function in a mouse model of acute lung injury. American Journal of Physiology-Lung Cellular and Molecular Physiology 296, L277-L285 (2009)) and analyzed with respect to lung mechanics, oxygenation, lung histology, lung ultrastructure, surfactant function and composition (FIGS. 3A-E). Elastance (or its inverse, compliance) and pressure-volume curves are commonly used to assess lung function in ALI/ARDS (JONSON, B. et al. Pressure-volume curves and compliance in acute lung injury. American journal of respiratory and critical care medicine 159, 1172-1178 (1999)).

[3] = CBS dynamic cycling of BLES with added (oxidized) phospholipids; format: physicochemical, bovine; conditions: non-oxidized lipid in BLES containing cholesterol, exposure to ambient air
Source text: In this Example, the role of oxidized polyunsaturated phospholipids in causing cholesterol-dependent surfactant dysfunction was studied. Oxidation of surfactant by the Fenton-like reaction or in the presence of ROS in the inflamed lung results in the formation of lipid-peroxides with polyunsaturated phospholipids the principal target. […] This introduction of a hydrophilic group in the formerly hydrophobic region will disrupt lipid packing. […] This is consistent with peroxidized PLPC, CL and other polyunsaturated phospholipids present in surfactant causing dysfunction together with cholesterol. […]
To ensure accurate mixing, additional lipids were added to lipid extracts of BLES or oxBLES as organic solutions. […] Phospholipid concentration was assessed using a phosphate assay (Gentaur Molecular Products, Kampenhout, Belgium) after liberation of free phosphate (Duck-Chong C G (1979) A rapid sensitive method for determining phospholipid phosphorus involving digestion with magnesium nitrate. Lipids 14: 492-497). […] BLES contained 2.60% cholesterol (w/w phospholipids) as determined using an enzymatic assay for cholesterol (Amplex Red Cholesterol Assay, Invitrogen, Eugene, Oreg., USA). hSP-A was added to dried films when indicated to a final concentration of 5% (w/w phospholipids). […]

methyl-β-cyclodextrin [MβCD]
surface tension [1]: almost zero | surfactant function in vivo ([2]; in the lung, given as an aerosol): can restore surfactant function | minimum surface tension of surfactant ([2]; injured mice treated with an MβCD-aerosol): < 10 mN/m

CCCCC/C=C\C/C=C\CCCCCCCC(=O)OC[C@H](COP(=O)(O)OCC(O)COP(=O)(O)OC[C@H](COC(=O)CCCCCCC/C=C\C/C=C\CCCCC)OC(=O)CCCCCCC/C=C\C/C=C\CCCCC)OC(=O)CCCCCCC/C=C\C/C=C\CCCCC (some centres unmarked) [CL, 1′,3′-Bis[1,2-dilinoleoyl-sn-glycero-3-phospho]-sn-glycerol]
surfactant function over time [3]: became dysfunctional after several hours

CCCCC/C=C\C/C=C\CCCCCCCC(=O)O[C@H](COC(=O)CCCCCCCCCCCCCCC)COP(=O)([O-])OCC[N+](C)(C)C [PLPC, 1-palmitoyl-2-linoleoyl-sn-glycero-3-phosphocholine]
surfactant function over time [3]: became dysfunctional after several hours
